Experiments:
Parameters in all cases: species or system mixed lysate of K562, MV4-11, THP-1, NCI-H1155
[1] = biological target: Phosphatidylinositol 4-kinase alpha ; PI4KA ; P42356 (Homo sapiens, UniProt P42356); settings: DDA-MS residual binding; binder
[2] = biological target: T1, Discoidin domain-containing receptor 2 ; DDR2 ; Q16832 (Homo sapiens, UniProt Q16832); settings: binder
T1 sequence (Q16832 1-855): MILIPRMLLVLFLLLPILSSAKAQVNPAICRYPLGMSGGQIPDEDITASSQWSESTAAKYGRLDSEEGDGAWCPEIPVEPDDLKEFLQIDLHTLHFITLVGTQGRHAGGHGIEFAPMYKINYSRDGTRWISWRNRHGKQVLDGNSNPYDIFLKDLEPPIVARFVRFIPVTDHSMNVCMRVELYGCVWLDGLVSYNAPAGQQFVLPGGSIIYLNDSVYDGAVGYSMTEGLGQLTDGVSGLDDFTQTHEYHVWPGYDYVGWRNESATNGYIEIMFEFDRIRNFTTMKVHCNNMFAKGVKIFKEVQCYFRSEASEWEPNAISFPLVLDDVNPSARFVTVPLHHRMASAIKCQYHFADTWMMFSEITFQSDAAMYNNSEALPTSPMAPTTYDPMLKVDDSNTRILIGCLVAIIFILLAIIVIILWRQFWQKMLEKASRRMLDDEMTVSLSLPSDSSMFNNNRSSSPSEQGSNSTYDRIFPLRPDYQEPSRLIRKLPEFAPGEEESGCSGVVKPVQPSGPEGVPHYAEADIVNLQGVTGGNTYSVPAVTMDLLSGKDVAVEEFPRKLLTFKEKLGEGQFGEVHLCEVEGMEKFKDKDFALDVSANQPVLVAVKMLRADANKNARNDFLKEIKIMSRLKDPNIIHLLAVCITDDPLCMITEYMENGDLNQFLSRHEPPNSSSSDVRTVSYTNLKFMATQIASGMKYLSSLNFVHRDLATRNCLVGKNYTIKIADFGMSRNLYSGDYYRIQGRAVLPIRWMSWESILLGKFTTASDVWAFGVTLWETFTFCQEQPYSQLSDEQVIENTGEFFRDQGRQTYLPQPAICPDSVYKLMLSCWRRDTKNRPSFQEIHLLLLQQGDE

[3] = biological target: Mitogen-activated protein kinase kinase kinase kinase 5 ; MAP4K5 ; Q9Y4K4 (Homo sapiens, UniProt Q9Y4K4); settings: DDA-MS residual binding; binder
[4] = biological target: Mitogen-activated protein kinase 14 ; MAPK14-2 ; Q16539-2 (Homo sapiens, UniProt Q16539); settings: DDA-MS residual binding; binder
Chain of Mitogen-activated protein kinase 14 ; MAPK14-2 ; Q16539-2 (Q16539 whole entry): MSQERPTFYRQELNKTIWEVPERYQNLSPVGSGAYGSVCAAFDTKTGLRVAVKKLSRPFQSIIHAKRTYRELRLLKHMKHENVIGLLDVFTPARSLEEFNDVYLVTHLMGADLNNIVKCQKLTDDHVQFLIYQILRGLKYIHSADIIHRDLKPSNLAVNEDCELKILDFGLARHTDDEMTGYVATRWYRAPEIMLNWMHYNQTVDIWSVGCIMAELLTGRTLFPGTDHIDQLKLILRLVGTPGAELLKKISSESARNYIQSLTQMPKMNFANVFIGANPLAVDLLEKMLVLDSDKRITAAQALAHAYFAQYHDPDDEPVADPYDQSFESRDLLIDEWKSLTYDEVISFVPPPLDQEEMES

[5] = biological target: Tyrosine-protein kinase FRK ; FRK ; P42685 (Homo sapiens, UniProt P42685); settings: DDA-MS residual binding; binder
Chain of Tyrosine-protein kinase FRK ; FRK ; P42685 (P42685 whole entry): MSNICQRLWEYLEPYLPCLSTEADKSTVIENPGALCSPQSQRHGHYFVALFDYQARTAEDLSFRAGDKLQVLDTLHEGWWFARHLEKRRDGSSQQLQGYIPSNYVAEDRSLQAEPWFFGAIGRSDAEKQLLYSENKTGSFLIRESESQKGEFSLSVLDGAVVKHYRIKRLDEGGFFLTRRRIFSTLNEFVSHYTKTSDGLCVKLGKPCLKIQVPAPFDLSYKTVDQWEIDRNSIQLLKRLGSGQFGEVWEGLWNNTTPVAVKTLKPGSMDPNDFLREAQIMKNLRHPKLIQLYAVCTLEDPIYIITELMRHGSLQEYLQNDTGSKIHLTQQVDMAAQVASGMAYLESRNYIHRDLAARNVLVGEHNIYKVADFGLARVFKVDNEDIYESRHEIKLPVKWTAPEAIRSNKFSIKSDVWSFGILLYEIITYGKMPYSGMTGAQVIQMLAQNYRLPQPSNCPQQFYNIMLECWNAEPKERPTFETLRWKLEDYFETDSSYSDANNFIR

[6] = biological target: MAP kinase-interacting serine/threonine-protein kinase 1 ; MKNK1 ; Q9BUB5 (Homo sapiens, UniProt Q9BUB5); settings: binder
Chain of MAP kinase-interacting serine/threonine-protein kinase 1 ; MKNK1 ; Q9BUB5 (Q9BUB5 whole entry, canonical isoform, one chain of several): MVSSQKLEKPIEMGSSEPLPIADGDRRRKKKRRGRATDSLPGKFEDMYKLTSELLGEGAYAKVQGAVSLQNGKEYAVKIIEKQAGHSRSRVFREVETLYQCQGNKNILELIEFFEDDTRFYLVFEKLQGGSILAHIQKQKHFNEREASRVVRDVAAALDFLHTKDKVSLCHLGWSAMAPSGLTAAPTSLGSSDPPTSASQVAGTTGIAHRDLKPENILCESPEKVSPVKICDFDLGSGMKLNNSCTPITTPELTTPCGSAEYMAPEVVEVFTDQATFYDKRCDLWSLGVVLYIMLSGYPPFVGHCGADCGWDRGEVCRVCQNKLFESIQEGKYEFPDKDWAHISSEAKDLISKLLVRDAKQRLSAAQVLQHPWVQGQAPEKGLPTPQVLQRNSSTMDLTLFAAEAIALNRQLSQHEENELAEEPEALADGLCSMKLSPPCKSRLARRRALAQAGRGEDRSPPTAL

[7] = biological target: Isoform 4 of Serine/threonine-protein kinase SIK3 ; SIK3-8 ; Q9Y2K2-8 (Homo sapiens, UniProt Q9Y2K2); settings: DIA-MS residual binding; binder
[8] = biological target: Isoform 3 of Serine/threonine-protein kinase SIK3 ; SIK3-7 ; Q9Y2K2-7 (Homo sapiens, UniProt Q9Y2K2); settings: DIA-MS residual binding; binder
[9] = biological target: Mitogen-activated protein kinase 14 ; MAPK14 ; Q16539 (Homo sapiens, UniProt Q16539); settings: DIA-MS residual binding; binder
Chain of Mitogen-activated protein kinase 14 ; MAPK14 ; Q16539 (Q16539 whole entry): as the sequence (Q16539 whole entry) above

[10] = biological target: Serine/threonine-protein kinase LMTK2 ; LMTK2 ; Q8IWU2 (Homo sapiens, UniProt Q8IWU2); settings: DIA-MS residual binding; binder
Chain of Serine/threonine-protein kinase LMTK2 ; LMTK2 ; Q8IWU2 (Q8IWU2 whole entry, canonical isoform, one chain of several): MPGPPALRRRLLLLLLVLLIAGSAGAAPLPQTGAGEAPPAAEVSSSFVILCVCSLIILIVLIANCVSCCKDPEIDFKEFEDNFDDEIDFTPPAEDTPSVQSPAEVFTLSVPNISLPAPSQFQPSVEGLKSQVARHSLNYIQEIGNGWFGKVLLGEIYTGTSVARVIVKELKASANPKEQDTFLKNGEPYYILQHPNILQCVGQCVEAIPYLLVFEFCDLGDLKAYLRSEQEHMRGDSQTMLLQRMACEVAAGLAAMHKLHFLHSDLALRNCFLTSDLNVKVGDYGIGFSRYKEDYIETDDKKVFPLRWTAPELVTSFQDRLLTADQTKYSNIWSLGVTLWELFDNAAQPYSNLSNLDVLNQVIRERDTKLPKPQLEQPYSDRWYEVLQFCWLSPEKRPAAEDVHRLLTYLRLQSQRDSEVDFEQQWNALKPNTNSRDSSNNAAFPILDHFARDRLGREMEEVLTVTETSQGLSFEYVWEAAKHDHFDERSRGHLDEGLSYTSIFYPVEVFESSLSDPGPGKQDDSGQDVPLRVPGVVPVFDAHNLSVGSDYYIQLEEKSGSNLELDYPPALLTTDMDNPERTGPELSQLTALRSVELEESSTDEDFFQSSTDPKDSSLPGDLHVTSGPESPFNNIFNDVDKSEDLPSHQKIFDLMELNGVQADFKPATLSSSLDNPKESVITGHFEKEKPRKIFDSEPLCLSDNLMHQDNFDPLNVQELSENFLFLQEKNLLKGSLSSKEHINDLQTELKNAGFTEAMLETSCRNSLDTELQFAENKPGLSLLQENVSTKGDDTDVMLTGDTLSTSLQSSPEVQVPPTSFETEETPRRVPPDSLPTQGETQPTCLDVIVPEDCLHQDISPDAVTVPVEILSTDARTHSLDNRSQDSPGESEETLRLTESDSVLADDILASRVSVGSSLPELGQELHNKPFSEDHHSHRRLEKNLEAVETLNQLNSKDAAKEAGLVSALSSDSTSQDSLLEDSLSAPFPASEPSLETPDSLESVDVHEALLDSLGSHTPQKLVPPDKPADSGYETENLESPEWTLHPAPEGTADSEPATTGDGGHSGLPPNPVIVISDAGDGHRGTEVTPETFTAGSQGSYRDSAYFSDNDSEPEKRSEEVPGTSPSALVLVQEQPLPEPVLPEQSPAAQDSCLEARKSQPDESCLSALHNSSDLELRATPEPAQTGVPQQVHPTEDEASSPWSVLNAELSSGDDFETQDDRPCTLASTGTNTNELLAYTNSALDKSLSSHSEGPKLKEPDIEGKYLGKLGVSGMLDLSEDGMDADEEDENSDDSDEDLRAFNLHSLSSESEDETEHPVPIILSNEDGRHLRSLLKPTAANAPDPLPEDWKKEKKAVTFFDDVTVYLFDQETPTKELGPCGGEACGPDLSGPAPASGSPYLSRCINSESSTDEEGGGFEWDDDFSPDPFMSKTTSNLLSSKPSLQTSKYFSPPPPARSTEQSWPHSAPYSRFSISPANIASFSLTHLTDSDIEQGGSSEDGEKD

[11] = biological target: Isoform 2 of Tyrosine-protein kinase Lyn ; LYN-2 ; P07948-2 (Homo sapiens, UniProt P07948); settings: DIA-MS residual binding; binder
[12] = biological target: T2, Dual specificity mitogen-activated protein kinase kinase 3 ; MAP2K3 ; P46734 (Homo sapiens, UniProt P46734); settings: DIA-MS residual binding; binder
T2 sequence (P46734 1-347): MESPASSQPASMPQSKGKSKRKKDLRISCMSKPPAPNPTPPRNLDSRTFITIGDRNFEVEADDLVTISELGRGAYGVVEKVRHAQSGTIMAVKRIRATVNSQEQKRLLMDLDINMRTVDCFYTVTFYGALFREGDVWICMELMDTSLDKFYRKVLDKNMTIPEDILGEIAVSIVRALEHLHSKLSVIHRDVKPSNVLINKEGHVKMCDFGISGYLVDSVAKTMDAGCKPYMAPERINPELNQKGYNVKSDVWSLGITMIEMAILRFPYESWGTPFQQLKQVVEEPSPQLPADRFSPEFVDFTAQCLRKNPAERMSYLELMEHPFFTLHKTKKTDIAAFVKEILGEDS

Chain of Phosphatidylinositol 4-kinase alpha ; PI4KA ; P42356 (P42356 whole entry, the tested form may be a part): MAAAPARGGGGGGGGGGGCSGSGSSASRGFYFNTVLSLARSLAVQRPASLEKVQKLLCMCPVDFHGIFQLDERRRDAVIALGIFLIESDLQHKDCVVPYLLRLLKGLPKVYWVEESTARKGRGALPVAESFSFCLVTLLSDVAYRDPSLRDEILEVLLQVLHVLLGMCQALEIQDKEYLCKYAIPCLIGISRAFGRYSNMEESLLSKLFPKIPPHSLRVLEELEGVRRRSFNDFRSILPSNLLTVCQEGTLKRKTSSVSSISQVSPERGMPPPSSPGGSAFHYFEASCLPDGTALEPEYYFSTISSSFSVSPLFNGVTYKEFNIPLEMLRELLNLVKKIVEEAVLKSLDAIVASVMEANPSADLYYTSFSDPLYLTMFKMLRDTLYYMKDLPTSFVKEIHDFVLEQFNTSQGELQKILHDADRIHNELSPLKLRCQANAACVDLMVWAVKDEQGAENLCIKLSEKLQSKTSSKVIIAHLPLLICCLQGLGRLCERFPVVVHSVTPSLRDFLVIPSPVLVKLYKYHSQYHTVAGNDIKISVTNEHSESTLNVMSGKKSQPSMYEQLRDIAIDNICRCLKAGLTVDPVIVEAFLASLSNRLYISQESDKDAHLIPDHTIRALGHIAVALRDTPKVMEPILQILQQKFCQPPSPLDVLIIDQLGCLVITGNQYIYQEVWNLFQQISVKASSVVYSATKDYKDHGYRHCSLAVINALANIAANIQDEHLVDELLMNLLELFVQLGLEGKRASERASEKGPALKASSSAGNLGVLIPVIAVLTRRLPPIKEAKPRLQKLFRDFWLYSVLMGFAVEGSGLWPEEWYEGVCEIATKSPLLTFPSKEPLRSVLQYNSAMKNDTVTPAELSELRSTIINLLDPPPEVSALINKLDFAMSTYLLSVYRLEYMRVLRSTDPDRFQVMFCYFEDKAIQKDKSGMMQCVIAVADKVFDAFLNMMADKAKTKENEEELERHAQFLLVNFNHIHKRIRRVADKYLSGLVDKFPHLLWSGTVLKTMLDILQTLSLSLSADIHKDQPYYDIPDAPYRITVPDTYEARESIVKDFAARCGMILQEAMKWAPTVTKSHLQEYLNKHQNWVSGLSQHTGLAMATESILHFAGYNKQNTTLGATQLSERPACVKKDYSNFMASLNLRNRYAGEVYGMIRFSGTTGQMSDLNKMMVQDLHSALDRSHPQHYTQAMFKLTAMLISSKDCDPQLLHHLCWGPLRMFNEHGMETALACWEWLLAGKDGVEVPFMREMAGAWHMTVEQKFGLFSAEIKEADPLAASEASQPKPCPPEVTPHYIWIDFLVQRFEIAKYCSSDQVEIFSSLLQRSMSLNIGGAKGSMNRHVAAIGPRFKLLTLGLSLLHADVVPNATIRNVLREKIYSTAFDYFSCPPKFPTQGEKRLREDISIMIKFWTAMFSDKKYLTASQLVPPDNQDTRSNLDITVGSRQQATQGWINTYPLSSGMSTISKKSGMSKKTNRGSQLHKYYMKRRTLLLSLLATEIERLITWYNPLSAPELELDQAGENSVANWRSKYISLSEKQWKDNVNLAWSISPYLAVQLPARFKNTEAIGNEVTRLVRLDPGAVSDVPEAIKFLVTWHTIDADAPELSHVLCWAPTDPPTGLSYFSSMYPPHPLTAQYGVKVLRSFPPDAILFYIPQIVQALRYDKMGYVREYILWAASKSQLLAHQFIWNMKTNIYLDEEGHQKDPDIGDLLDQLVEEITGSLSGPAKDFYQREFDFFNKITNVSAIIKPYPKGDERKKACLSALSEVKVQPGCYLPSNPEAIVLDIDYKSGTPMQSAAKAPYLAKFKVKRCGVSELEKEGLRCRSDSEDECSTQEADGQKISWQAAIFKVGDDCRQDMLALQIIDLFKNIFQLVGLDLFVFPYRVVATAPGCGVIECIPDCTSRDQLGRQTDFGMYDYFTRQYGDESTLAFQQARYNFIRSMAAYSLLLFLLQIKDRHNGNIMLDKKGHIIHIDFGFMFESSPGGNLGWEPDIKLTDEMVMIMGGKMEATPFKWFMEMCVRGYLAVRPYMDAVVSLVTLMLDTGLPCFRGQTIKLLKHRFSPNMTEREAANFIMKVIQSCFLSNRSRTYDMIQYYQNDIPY

Cc1nc(Nc2ncc(C(=O)Nc3c(C)cccc3Cl)s2)cc(N2CCN(CCO)CC2)n1 [dasatinib]
DDA-MS / % Intensity (30 µM/DMSO) [1]: 10.66% | DDA-MS / % Intensity (30 µM/DMSO) [2]: 10.23% | DDA-MS / % Intensity (30 µM/DMSO) [3]: 24.77% | DDA-MS / % Intensity (30 µM/DMSO) [4]: 29.04% | DDA-MS / % Intensity (30 µM/DMSO) [5]: 5.626% | DIA-MS / % Intensity (30 µM/DMSO) [6]: 27.84% | DIA-MS / % Intensity (30 µM/DMSO) [7]: 10.64% | DIA-MS / % Intensity (30 µM/DMSO) [8]: 12.26% | DIA-MS / % Intensity (30 µM/DMSO) [9]: 32.28% | DIA-MS / % Intensity (30 µM/DMSO) [10]: 9.818% | DIA-MS / % Intensity (30 µM/DMSO) [11]: 1.98% | DIA-MS / % Intensity (30 µM/DMSO) [12]: 55.82%

— publication doi:10.1101/2024.08.13.607785v1 (biorxiv, 2024)
